Consider 20 molecules from patent US4642379A, “Intermediates for anticonvulsant agents” (Eli Lilly and Company, priority 1985, dated 1987).

By ED50 is commonly meant the dose at which the effect has come halfway, by size or by number of responders.

The structures appear in SMILES notation.

Series [1] deals with electroshock induced convulsion. Briefly: electroshock induced convulsion inhibition assay (E.S.). The format is in vivo, mice (Cox standard strain albino male). The note with it: for ED50: Mus musculus. As for the experimental part: In the elctroshock induced convulsion inhibition assay (E.S.), the compound to be tested was suspended in acacia and administered by gavage to each of ten Cox standard strain albino male mice (18-24 g) at the dose level being investigated. […] The animals were examined and evaluated immediately after the electroshock for the occurrence of clonic, flexor tonic, or extensor tonic convulsions, or death and the ED50 was determined for each compound as the dose which inhibited the occurrence of extensor tonic convulsions in one half of the animals immediately after the electroshock.

For series [2] the following is noted: man; cited from earlier work.
[3] abbreviates: oral dose (gavage), mice, 0.1 second, 50 milliampere electroshock through corneal electrodes, at time of optimal response.

`CCC(=O)Nc1ccc(C(=O)Nc2c(C)cccc2C)cc1` [Example 2, N-(2,6-dimethylphenyl)-4-[(1-oxopropyl)amino]benzamide]: the 50% effective dose (ED50) in series [1] (setting [3]) was determined as 10.5 mg/kg.
Same read-out and setting: then `CC(=O)Nc1ccc(C(=O)NC(C)c2ccccc2)cc1` (stereo not drawn) [Example 6, 4-(Acetylamino)-N-(1-phenylethyl)benzamide], with 54 mg/kg.
With `Cc1cccc(C)c1NC(=O)c1ccc(NC(=O)C(C)C)cc1` [Example 3, N-(2,6-dimethylphenyl)-4-[(2-methyl-1-oxopropyl)amino]benzamide], in series [1] (setting [3]), the ED50 is 8.2 mg/kg.
The same measure, in the same setting: then `Cc1cccc(C)c1NC(=O)c1ccc(NC(=O)CN2CCOCC2)cc1` [Example 18, N-[4-([(2,6-Dimethylphenyl)amino]carbonyl)phenyl]-4-morpholineacetamide], with 17.5 mg/kg.
For the molecule `CC(=O)Nc1ccc(C(=O)Nc2c(C)cccc2C)cc1C` [Example 11, 4-(Acetylamino)-N-(2,6-dimethylphenyl)-3-methylbenzamide], in series [1] (setting [3]), it took a dose of 4.5 mg/kg to reach the 50% effect level (ED50).
On to `Cc1cccc(C)c1NC(=O)c1ccc(NC(=O)CCN2CCCC2)cc1` [Example 19, N-[4-([(2,6-Dimethylphenyl)amino]carbonyl)phenyl]-1-pyrrolidinepropanamide], for which, in series [1] (setting [3]), the 50% effective dose (ED50) was 26.9 mg/kg.
The molecule `Cc1cccc(C)c1NC(=O)c1ccc(NC(=O)CN2CCCCCC2)cc1` [Example 21, N-[4-([(2,6-Dimethylphenyl)amino]carbonyl)phenyl]hexahydro-1-H-azepine-1-acetamide] registered an ED50 in series [1] (setting [3]) of 5.1 mg/kg.
As for `CC(=O)Nc1ccc(C(=O)N[C@H](C)c2ccccc2)cc1` [Example 5], in series [1] (setting [3]), the “Electroshock ED50 (mg/kg)” value is “ca. 100 mg/kg”. In series [1] (time between oral dosing and electroshock), the “Time After dosing (minutes) providing an optimal response” value turned out to be 60 min.
The molecule `Cc1cccc(C)c1NC(=O)c1ccc(NC(=O)CN2CCCC2)cc1` [Example 16, N-[4-([(2,6-Dimethylphenyl)amino]carbonyl)phenyl]-1-pyrrolidineacetamide] returned an ED50 in series [1] (setting [3]) of 3.75 mg/kg.
`O=C1NC(=O)C(c2ccccc2)(c2ccccc2)N1` [phenytoin]: in series [2], the “plasma level at which ataxia is obvious” value was 30000 ng/mL, the “plasma level at which lethargy is apparent” value is “about 40 mcg/ml”, the “plasma level at which nystagmus is seen” value is given as “around 20 mcg/ml” and the “plasma level at which seizures are controlled” value was at least 10 µg/mL.
Consider `Cc1cccc(C)c1NC(=O)c1ccc(NC(=O)CN2CCN(C)CC2)cc1` [Example 17, N-[4-([(2,6-Dimethylphenyl)amino]carbonyl)phenyl]-4-methyl-1-piperazineacetamide], for which, in series [1] (setting [3]), the ED50 was above 112 mg/kg.
As for `Cc1cccc(C)c1NC(=O)c1ccc(NC(=O)C(C)N2CCCC2)cc1` (stereo not drawn) [Example 20], in series [1] (setting [3]), the ED50 turned out to be 42.5 mg/kg.
`CCN(CC)CC(=O)Nc1ccc(C(=O)Nc2c(C)cccc2C)cc1.O=C(O)C(=O)O` [Example 14, 4-([(Diethylamino)acetyl]amino)-N-(2,6-dimethylphenyl)benzamide ethanedioate] registered an ED50 in series [1] (setting [3]) of 3.6 mg/kg. Compared with the last molecule, the ED50 is about 12-fold lower.
In series [1] (setting [3]), `CNCC(=O)Nc1ccc(C(=O)Nc2c(C)cccc2C)cc1.O=C(O)C(=O)O` [Example 13, N-(2,6-dimethylphenyl)-4-([(methylamino)acetyl]amino)benzamide ethanedioate] yielded an ED50 of 6.3 mg/kg. This ED50 lies about 1.8-fold higher than the previous one.
`CC(=O)Nc1ccc(C(=O)N[C@@H](C)c2ccccc2)cc1` [Example 4, (S)-4-(acetylamino)-N-(1-phenylethyl)benzamide] had a 50% effective dose (ED50) in series [1] (setting [3]) of 22.2 mg/kg. Against the preceding molecule, the ED50 is about 3.5-fold higher.
In the case of `CC(=O)Nc1ccc(C(=O)Nc2c(C)cccc2C)cc1` [Example 1, 4-(Acetylamino)-N-(2,6-dimethylphenyl)benzamide], in series [1] (setting [3]), the ED50 stood at 3.6 mg/kg.
Same read-out and setting: then `Cc1cccc(C)c1NC(=O)c1ccc(NC(=O)CN2CCCCC2)cc1` [Example 15, N-[4-([(2,6-Dimethylphenyl)amino]carbonyl)phenyl]-1-piperidineacetamide], with 9.5 mg/kg; and `CCNCC(=O)Nc1ccc(C(=O)NC(C)c2ccccc2)cc1.Cl` (stereo not drawn) [Example 22, 4-([(Ethylamino)acetyl]amino)-N-(1-phenylethyl)benzamide hydrochloride], with 28 mg/kg.
`Cc1cccc(C)c1NC(=O)c1ccc(NC(=O)CN(C)C)cc1` [Example 12, 4-([(Dimethylamino)acetyl]amino)-N-(2,6-dimethylphenyl)benzamide] came in with an ED50 in series [1] (setting [3]) of 8 mg/kg.
In the case of `CCNCC(=O)Nc1ccc(C(=O)Nc2c(C)cccc2C)cc1` [Example 23, N-(2,6-Dimethylphenyl)-4-([(ethylamino)acetyl]amino)benzamide], the 50% effect level in series [1] (setting [3]) (ED50) was put at a dose of 3.2 mg/kg.
